# According to patent publication US9896447B2, “TrkA kinase inhibitors, compositions and methods thereof” (MERCK SHARP & DOHME CORP., priority 2013, dated 2018):
# Target: TrkA receptor (Homo sapiens (Human), UniProt P04629)
# Assay: DiscoverX PathHunter TrkA functional assay (U2OS cells, NGF stimulated)
# Assay type: cell-based
# Details: U2OS cells expressing TrkA-Prolink and Shc1-EA; compound 1 hour, then EC80 of NGF for 3 hours; luminescence
# Method: TrkA functional activity was measured using a DiscoverX PathHunter assay. In this assay, U2OS cells are express TrkA receptor as a fusion with the weakly complementing fragment of B-galactosidase, which DiscoverX calls “Prolink (PK)”; additionally, Shc1 is fused with a larger fragment, which is called “Enzyme Acceptor (EA)”. Activation of the TrkA receptor, upon NGF addition, results in the kinase domain being phosphorylated, resulting in subsequent recruitment of Shc1-EA protein. That recruitment results in an active B-galactosidase enzyme that is detected by addition of a chemiluminescent substrate.
# All reagents were purchased from DiscoverX, except for the receptor agonists (NGF, BDNF, NT3) which were purchased from Peprotech. Cells were expanded and frozen into cryovials (TrkA p75 @ passage 13, 1.5×10^7 cells/vial; TrkC p75 @ passage 11, 1.5×10^7 cells/vial in InVitrogen Recovery Cell Freezing media), and stored in the vapor phase of liquid nitrogen, and thawed immediately before use. Thawed cells were added to a 384-well plate (BD Falcon 384-well white/clear, TC surface 120 uL assay plates (353963), 20 uL of 0.375e6 cells/mL=>7500 cells/well), and allowed to incubate overnight. Compound (10 mM starting dose: 202.5 nL compound yielding 0.81% DMSO final in total assay volume and starting doses 81 uM) was added the following morning and allowed to incubate on cells for 1 hour. Then, 5 uL EC80 of agonist (NGF for TrkA; BDNF for TrkB; NT3 for TrkC) was added and allowed to incubate for 3 hours at room temperature. DiscoverX PathHunter detection reagent is added (12 uL to plate and components diluted in parts as per kit instructions) and the plate is further incubated for 1 hour in the dark. The plate is read via luminescence on the Perkin Elmer Envision.
# TrkA receptor, sequence (P04629 33-796): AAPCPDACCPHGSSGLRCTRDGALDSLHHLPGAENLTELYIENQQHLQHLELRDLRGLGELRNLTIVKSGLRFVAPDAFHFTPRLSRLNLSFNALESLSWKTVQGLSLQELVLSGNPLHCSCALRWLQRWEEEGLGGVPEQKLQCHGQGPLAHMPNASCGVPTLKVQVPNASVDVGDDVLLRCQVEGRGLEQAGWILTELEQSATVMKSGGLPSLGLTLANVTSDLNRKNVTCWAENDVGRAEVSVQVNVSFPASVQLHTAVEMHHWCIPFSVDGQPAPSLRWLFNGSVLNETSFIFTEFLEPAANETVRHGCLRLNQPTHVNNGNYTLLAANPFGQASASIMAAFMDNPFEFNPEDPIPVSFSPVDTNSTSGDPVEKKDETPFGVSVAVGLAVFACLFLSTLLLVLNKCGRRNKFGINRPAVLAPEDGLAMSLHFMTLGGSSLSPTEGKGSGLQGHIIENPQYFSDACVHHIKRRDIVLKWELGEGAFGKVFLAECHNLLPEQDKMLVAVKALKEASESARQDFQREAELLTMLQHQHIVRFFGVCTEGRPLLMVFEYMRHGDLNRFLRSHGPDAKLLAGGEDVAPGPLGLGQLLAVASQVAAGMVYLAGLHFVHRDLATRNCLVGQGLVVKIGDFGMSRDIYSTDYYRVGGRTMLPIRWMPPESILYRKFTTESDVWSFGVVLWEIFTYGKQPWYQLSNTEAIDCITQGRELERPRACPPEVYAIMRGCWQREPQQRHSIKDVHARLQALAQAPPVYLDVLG
row,IC50 [µM],SMILES
1,1.6,"Cn1ccnc1-c1cccc(NC(=O)Nc2c(-c3ccccc3)nc3ccccn23)c1 [Compound 27, 1-[3-(1-methyl-1H-imidazol-2-yl)phenyl]-3-(2-phenylimidazo[1,2-a]pyridin-3-yl)urea]"
2,0.46,"CCOC(=O)c1nc2ccccn2c1NC(=O)Nc1c(-c2ccccc2)nc2ccccn12 [Compound 28, ethyl 3-{[(2-phenylimidazo[1,2-a]pyridin-3-yl)carbamoyl]amino} imidazo[1,2-a]pyridine-2-carboxylate]"
3,1.4,"O=C(Nc1c(-c2ccccc2)nc2ccccn12)Nc1c(-n2cccn2)nc2ccccn12 [Compound 29, 1-(2-phenylimidazo[1,2-a]pyridin-3-yl)-3-[2-(1H-pyrazol-1-yl)imidazo[1,2-a]pyridin-3-yl]urea]"
4,1.5,"O=C(Nc1c(-c2ccccc2)nc2ccccn12)Nc1c(-c2ccccc2)nc2ncccn12 [Compound 30, 1-(2-phenylimidazo[1,2-a]pyridin-3-yl)-3-(2-phenylimidazo[1,2-a]pyrimidin-3-yl)urea]"
5,1,"O=C(Nc1c(-c2ccccc2)nc2ccccn12)Nc1c(-c2ccccc2)nc2ccc(Cl)nn12 [Compound 31, 1-(6-chloro-2-phenylimidazo[1,2-b]pyridazin-3-yl)-3-(2-phenylimidazo[1,2-a]pyridin-3-yl)urea]"
6,1,"CNC(=O)c1nc2ccccn2c1NC(=O)Nc1c(-c2ccccc2)nc2ccccn12 [Compound 32, N-methyl-3-{[(2-phenylimidazo[1,2-a]pyridin-3-yl)carbamoyl]amino}imidazo[1,2-a]pyridine-2-carboxamide]"
7,4,"Cc1nc(-c2ccccc2)c(NC(=O)Nc2c(-c3ccccc3)ncn2C)s1 [Compound 33, 1-(1-methyl-4-phenyl-1H-imidazol-5-yl)-3-(2-methyl-4-phenyl-1,3-thiazol-5-yl)urea]"
8,4.1,"Cc1nc(-c2ccccc2)c(NC(=O)Nc2c(-c3ccccc3)nc(C)n2C)s1 [Compound 34, 1-(1,2-dimethyl-4-phenyl-1H-imidazol-5-yl)-3-(2-methyl-4-phenyl-1,3-thiazol-5-yl)urea]"
9,0.61,"Cc1nc(-c2ccccc2)c(NC(=O)Nc2sc(C)nc2-c2ccccc2)s1 [Compound 35, 1,3-bis(2-methyl-4-phenyl-1,3-thiazol-5-yl)urea]"
10,2.3,"Cc1ncc(NC(=O)Nc2sc(C)nc2-c2ccccc2)c(-c2ccccc2)n1 [Compound 36, 1-(2-methyl-4-phenylpyrimidin-5-yl)-3-(2-methyl-4-phenyl-1,3-thiazol-5-yl)urea]"
11,1.8,"Cc1nc(-c2ccccc2)c(NC(=O)Nc2cccnc2-c2ccccc2)s1 [Compound 37, 1-(2-methyl-4-phenyl-1,3-thiazol-5-yl)-3-(2-phenylpyridin-3-yl)urea]"
12,1.1,"O=C(NCc1cc(F)ccc1C(F)(F)F)Nc1ccnn1-c1ccccc1 [Compound 38, 1-[5-fluoro-2-(trifluoromethyl)benzyl]-3-(1-phenyl-1H-pyrazol-5-yl)urea]"
13,1.4,"O=C(NCc1ccc(F)cc1C(F)(F)F)Nc1ccnn1-c1ccccc1 [Compound 39, 1-[4-fluoro-2-(trifluoromethyl)benzyl]-3-(1-phenyl-1H-pyrazol-5-yl)urea]"
14,0.68,"Cc1ncc(NC(=O)NCc2ccccc2SC(F)(F)F)c(-c2ccccc2)n1 [Compound 40, 1-(2-methyl-4-phenylpyrimidin-5-yl)-3-{2-[(trifluoromethyl)sulfanyl]benzyl}urea]"
15,2.1,"Cc1ncc(NC(=O)N[C@@H](C)C2CCCCC2)c(-c2ccccc2)n1 [Compound 41, 1-[(1S)-1-cyclohexylethyl]-3-(2-methyl-4-phenylpyrimidin-5-yl)urea]"

# The remaining lines, values behind:
row,SMILES,IC50 [µM]
1,"O=C(Nc1c(-c2ccccc2)nc2ccccn12)Nc1c(-c2ccccc2)nc2ccccn12 [Compound 1, 1,3-bis(2-phenylimidazo[1,2-a]pyridin-3-yl)urea]",0.082
2,"O=C(Nc1ccccn1)Nc1cc(-c2ccccc2)nn1-c1ccccc1 [Compound 2, 1-(1,3-diphenyl-1H-pyrazol-5-yl)-3-pyridin-2-ylurea]",0.16
3,"Cc1cc(NC(=O)Nc2cc(C)nn2-c2ccccc2)n(-c2ccccc2)n1 [Compound 3, 1,3-bis(3-methyl-1-phenyl-1H-pyrazol-5-yl)urea]",2.7
4,"Cc1cc(NC(=O)Nc2cccc3ccccc23)n(-c2ccccc2)n1 [Compound 4, 1-(3-methyl-1-phenyl-1H-pyrazol-5-yl)-3-naphthalen-1-ylurea]",0.59
5,"Cc1cc(NC(=O)Nc2cccc(Br)n2)n(-c2ccccc2)n1 [Compound 5, 1-(6-bromopyridin-2-yl)-3-(3-methyl-1-phenyl-1H-pyrazol-5-yl)urea]",4.8
6,"Cc1cc(NC(=O)Nc2ccccc2-c2ccccc2)n(-c2ccccc2)n1 [Compound 6, 1-biphenyl-2-yl-3-(3-methyl-1-phenyl-1H-pyrazol-5-yl)urea]",0.42
7,"Cc1cc(NC(=O)Nc2cccc(C)c2C)n(-c2ccccc2)n1 [Compound 7, 1-(2,3-dimethylphenyl)-3-(3-methyl-1-phenyl-1H-pyrazol-5-yl)urea]",4.8
8,"Cc1cc(NC(=O)Nc2cc(Br)ccn2)n(-c2ccccc2)n1 [Compound 8, 1-(4-bromopyridin-2-yl)-3-(3-methyl-1-phenyl-1H-pyrazol-5-yl)urea]",3
9,"O=C(Nc1ccccn1)Nc1cc(-c2ccncc2)nn1-c1ccccc1 [Compound 9, 1-(1-phenyl-3-pyridin-4-yl-1H-pyrazol-5-yl)-3-pyridin-2-ylurea]",0.35
10,"Cc1cc(NC(=O)Nc2ccccn2)n(-c2ccccc2)n1 [Compound 10, 1-(3-methyl-1-phenyl-1H-pyrazol-5-yl)-3-pyridin-2-ylurea]",1.8
11,"COc1ccc(NC(=O)Nc2cc(C)nn2-c2ccccc2)nc1 [Compound 11, 1-(5-methoxypyridin-2-yl)-3-(3-methyl-1-phenyl-1H-pyrazol-5-yl)urea]",3.4
12,"Cc1ccc(NC(=O)Nc2ccccn2)c(-c2ccccc2)n1 [Compound 12, 1-(6-methyl-2-phenylpyridin-3-yl)-3-pyridin-2-ylurea]",1.1
13,"Cc1ncc(NC(=O)Nc2ccccc2-c2ccccc2)c(-c2ccccc2)n1 [Compound 13, 1-biphenyl-2-yl-3-(2-methyl-4-phenylpyrimidin-5-yl)urea]",2.3
14,"Cc1onc(-c2ccccc2)c1NC(=O)NCc1ccccc1C(F)(F)F [Compound 14, 1-(5-methyl-3-phenylisoxazol-4-yl)-3-[2-(trifluoromethyl)benzyl]urea]",0.35
15,"Cc1ncc(NC(=O)Nc2cccc3ccccc23)c(-c2ccccc2)n1 [Compound 15, 1-(2-methyl-4-phenylpyrimidin-5-yl)-3-naphthalen-1-ylurea]",4.1
16,"O=C(Nc1cccc2ccccc12)Nc1c(-c2ccccc2)nc2sccn12 [Compound 16, 1-naphthalen-1-yl-3-(6-phenylimidazo[2,1-b][1,3]thiazol-5-yl)urea]",0.29
17,"Cc1ncc(NC(=O)Nc2cnc(C)nc2-c2ccccc2)c(-c2ccccc2)n1 [Compound 17, 1,3-bis(2-methyl-4-phenylpyrimidin-5-yl)urea]",1.4
18,"CSc1ncc(NC(=O)Nc2cnc(SC)nc2-c2ccccc2)c(-c2ccccc2)n1 [Compound 18, 1,3-bis[2-(methylsulfanyl)-4-phenylpyrimidin-5-yl]urea]",0.28
19,"Cc1ncc(NC(=O)Nc2ccccn2)c(-c2ccccc2)n1 [Compound 20, 1-(2-methyl-4-phenylpyrimidin-5-yl)-3-pyridin-2-ylurea]",4
20,"Cc1ncc(NC(=O)Nc2c(-c3ccccc3)nc3ccccn23)c(-c2ccccc2)n1 [Compound 21, 1-(2-methyl-4-phenylpyrimidin-5-yl)-3-(2-phenylimidazo[1,2-a]pyridin-3-yl)urea]",0.15
21,"O=C(Nc1ccc(C(F)(F)F)cc1Cl)Nc1c(-c2ccccc2)nc2ccccn12 [Compound 22, 1-[2-chloro-4-(trifluoromethyl)phenyl]-3-(2-phenylimidazo[1,2-a]pyridin-3-yl)urea]",4.2
22,"O=C(Nc1ccc(C(F)(F)F)cc1)Nc1c(-c2ccccc2)nc2ccccn12 [Compound 23, 1-(2-phenylimidazo[1,2-a]pyridin-3-yl)-3-[4-(trifluoromethyl)phenyl]urea]",4.3
23,"O=C(Nc1cccnc1-c1ccccc1)Nc1c(-c2ccccc2)nc2ccccn12 [Compound 24, 1-(2-phenylimidazo[1,2-a]pyridin-3-yl)-3-(2-phenylpyridin-3-yl)urea]",0.45
24,"Cc1cc(NC(=O)Nc2c(-c3ccccc3)nc3ccccn23)n(-c2ccccc2)n1 [Compound 25, 1-(3-methyl-1-phenyl-1H-pyrazol-5-yl)-3-(2-phenylimidazo[1,2-a]pyridin-3-yl)urea]",0.52
25,"Cc1nc(-c2ccccc2)c(NC(=O)Nc2c(-c3ccccc3)nc3ccccn23)s1 [Compound 26, 1-(2-methyl-4-phenyl-1,3-thiazol-5-yl)-3-(2-phenylimidazo[1,2-a]pyridin-3-yl)urea]",0.048
